Reference: ChEMBL document CHEMBL3580588, “Inhibitors of the PAR-2 Signaling Pathway May Treat Pain and Inflammation” (ACS Med Chem Lett, 2015)

Biological target: Proteinase-activated receptor 1 (Homo sapiens) (UniProt P25116)
Experiment: Antagonist activity against PAR1 in human HT29 cells assessed as inhibition of thrombin-induced Ca2+ responses pre-incubated for 30 mins before thrombin stimulation by FLIPR assay

Chain of Proteinase-activated receptor 1 (Homo sapiens) (P25116 whole entry, looked up): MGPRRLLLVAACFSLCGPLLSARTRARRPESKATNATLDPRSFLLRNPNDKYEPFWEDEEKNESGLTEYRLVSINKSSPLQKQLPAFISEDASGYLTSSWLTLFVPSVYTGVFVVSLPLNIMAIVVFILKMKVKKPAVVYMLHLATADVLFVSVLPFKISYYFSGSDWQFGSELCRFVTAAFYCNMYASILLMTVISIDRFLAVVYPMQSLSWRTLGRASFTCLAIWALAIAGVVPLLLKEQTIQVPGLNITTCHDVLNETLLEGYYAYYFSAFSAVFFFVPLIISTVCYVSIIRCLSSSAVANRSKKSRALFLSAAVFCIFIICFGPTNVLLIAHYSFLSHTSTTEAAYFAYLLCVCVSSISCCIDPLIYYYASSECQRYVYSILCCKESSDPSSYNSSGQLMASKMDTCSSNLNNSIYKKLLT

Row | IC50 | Structure (SMILES)
1 | 5.5 µM | CCOC(=O)[C@H]1CCCN(C(=O)c2cn3nc(-c4ccc(F)cc4)cc(C(F)(F)F)c3n2)[C@@H]1C
2 | > 0.5 µM | CC(C)c1cc(-c2ccc(F)cc2)nn2cc(C(=O)N3CCN(C(=O)Cc4ccsc4)[C@@H](C)C3)nc12
3 | > 50 µM | CC(C)(C)OC(=O)N1CCN(C(=O)c2cn3nc(-c4ccc(F)cc4)cc(C(C)(C)C)c3n2)C(C)(C)C1
